{"source": "paper PMC8301025", "about": "(Biology, 2021)", "system": "T1, CLas GMPS", "T1 construct": "gene guaA", "conditions": "read-out: (NH4)2SO4, Km mM; saturating XMP and ATP, 20 mM MgCl2, pH 8.5; salt printed as (NH4)2SO4 in table, NH4Cl in methods; text prints 10.9 ± 1.9 mM"}
{"smiles": "N", "note": "[NH4+]", "values": [{"measurement": "Km", "result": "10.9 ± 1.3", "unit": "mM"}]}
